Source: paper PMC6684055 (Toxicology letters, 2019)
Several values for one entry are separate records, joined by “and”; a condition that tells them apart may be missing. Equal values may be shown once. Entries after “also recorded” stand apart in the source; their conditions may differ.

Legend:
[1] = system: CYP1A1 and CYP1A2; assay: Expression of CYP1A1 and CYP1A2 mRNAs; assay type: cell-based, human; conditions: three donors, 24 h, MMI 200 μM, TCDD 5 nM
[2] = system: CYP1A2 mRNA; assay: CYP1A2 mRNA expression; assay type: cell-based, human; conditions: 5 F-HepaRG cells, 24 h, TCDD 5 nM, two consecutive passages
[3] = system: CYP1A1; assay: Induction of CYP1A1 catalytic activity in primary human hepatocytes; assay type: cell-based; conditions: 24 h; for induction of CYP1A1 activity, concentration-response profile (in words): then luciferin-CEE 3 h
[4] = system: CYP1A genes; assay: Induction of CYP1A genes; conditions: 5 F-HepaRG cells, 24 h, MMI 200 μM; for efficacy of CYP1A genes induction relative to TCDD (100%): TCDD 5 nM
[5] = system: CYP1A1; assay: Single concentration inactivation assay; assay type: biochemical; conditions: human, human liver microsomes, probe Luciferin-CEE
[6] = system: CYP1A1; conditions: ref Stepankova et al., 2018; cited from earlier work
[7] = biological target: T1, AhR (Homo sapiens, UniProt P35869); assay type: cell-based; conditions: AZ-AHR cells, without incubation with hepatocytes
T1 sequence (P35869 11-848): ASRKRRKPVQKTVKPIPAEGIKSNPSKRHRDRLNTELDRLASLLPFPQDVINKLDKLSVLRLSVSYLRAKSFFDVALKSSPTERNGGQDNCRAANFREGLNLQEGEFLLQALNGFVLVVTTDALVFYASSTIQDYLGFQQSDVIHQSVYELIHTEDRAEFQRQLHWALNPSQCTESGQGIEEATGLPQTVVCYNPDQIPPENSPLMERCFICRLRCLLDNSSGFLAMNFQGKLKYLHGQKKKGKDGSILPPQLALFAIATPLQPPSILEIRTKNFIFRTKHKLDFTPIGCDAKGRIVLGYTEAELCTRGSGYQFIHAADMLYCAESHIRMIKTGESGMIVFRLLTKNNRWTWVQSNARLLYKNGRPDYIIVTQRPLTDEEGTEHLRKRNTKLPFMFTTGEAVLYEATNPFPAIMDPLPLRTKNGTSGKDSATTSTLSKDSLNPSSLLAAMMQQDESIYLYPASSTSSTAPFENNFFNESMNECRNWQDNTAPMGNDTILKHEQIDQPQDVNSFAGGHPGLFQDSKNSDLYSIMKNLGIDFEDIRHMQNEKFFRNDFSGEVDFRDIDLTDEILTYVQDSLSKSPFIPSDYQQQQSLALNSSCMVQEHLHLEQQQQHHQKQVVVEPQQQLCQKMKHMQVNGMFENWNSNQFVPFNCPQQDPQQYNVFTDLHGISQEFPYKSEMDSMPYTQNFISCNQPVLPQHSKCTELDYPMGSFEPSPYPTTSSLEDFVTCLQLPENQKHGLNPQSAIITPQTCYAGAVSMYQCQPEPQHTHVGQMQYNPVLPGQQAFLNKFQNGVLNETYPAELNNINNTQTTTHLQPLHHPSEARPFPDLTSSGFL

[8] = Residual MMI in culture media after incubation with primary human hepatocytes; assay type: in vitro ADME; conditions: 24 h incubation with human hepatocytes, initial 200 μM
[9] = system: CYP1A1; assay: Induction of CYP1A1 catalytic activity in LS180 cells; assay type: cell-based, human; conditions: 24 h, inverse U-shape profile
[10] = system: human AhR; conditions: cited from earlier work
[11] = human hepatocytes, MMI 0.1-200 μM

Row | SMILES | induction of CYP1A1 and CYP1A2 mRNAs and proteins in primary human hepatocytes (in words) [1] | efficacy of CYP1A genes induction relative to TCDD (100%) [4] | induction of CYP1A1 activity, concentration-response profile (in words) [3, 11] | concentration at peak of CYP1A1 induction [9] | other results
1 | Clc1cc2c(cc1Cl)Oc1cc(Cl)c(Cl)cc1O2 [TCDD, 2,3,7,8-tetrachlorodibenzo-p-dioxin, reference compound] | strongly induced |  |  |  | induction of CYP1A2 mRNA [2]: 34 fold and 50 fold; induction of CYP1A1 enzyme activity ([3]; human hepatocytes culture Hep200571, TCDD 5 nM): 11 fold; induction of CYP1A1 enzyme activity ([3]; human hepatocytes culture Hep220993, TCDD 5 nM): 153 fold
2 | Cc1ccc2[nH]ccc2c1 [5-methylindole] |  | ~ 20% | Inverse U-shaped |  | inhibition at 30 min, 200 μM [5]: 47%
3 | Cc1cccc2cc[nH]c12 [7-methylindole] | strong inducer; also recorded: very strong inducer | ~ 20% | Concentration-dependent induction |  | CYP1A induction in LS180 intestinal cells (in words) [6]: modest CYP1A inducer; also recorded: weak inducer; CYP1A induction in HepaRG cells (in words) [4]: modest CYP1A inducer; relative efficacy of CYP1A1 activity induction as compared to TCDD [3, 11]: ~ 2%; AhR agonist activity of parental compound (in words) [7]: weak agonist of AhR
4 | Cn1ccc2ccccc21 [1-methylindole] | Modest induction | 15% |  |  | residual MMI in culture media (in words) [8]: no residual MMI was detected
5 | Cc1ccc2cc[nH]c2c1 [6-methylindole] |  |  | Inverse U-shaped | 25 µM | efficacy as AhR agonist compared to 3-methylindole (skatole) ([10]; ref Stepankova et al., 2018): approx. 25 times
6 | Cc1cccc2[nH]ccc12 [4-methylindole] |  | ~100% | Inverse U-shaped | 25 µM | efficacy as AhR agonist compared to 3-methylindole (skatole) ([10]; ref Stepankova et al., 2018): approx. 25 times; inhibition at 30 min, 200 μM [5]: 10%
7 | Cc1cc2ccccc2[nH]1 [2-methylindole] | no effect |  | No induction | 25 µM | activity at AhR (in words) ([10]; ref Stepankova et al., 2018): nearly inactive; CYP1A induction in HepaRG cells (in words) [4]: nearly inactive
8 | Cc1c[nH]c2ccccc12 [3-methylindole] | Modest induction |  | No induction |  | activity at human AhR (in words) ([10]; ref Rasmussen et al., 2016): partial agonist
